Patent US5736380A, “Maltose-trehalose converting enzyme, and preparation and uses thereof” (Kabushiki Kaisha Hayashibara Seibutsu Kagaku Kenkyujo, priority 1993, dated 1998)
“Also recorded” adds a separate entry of the source. Where a name gives a salt, the structure may show the parent alone.

Experiments:
[1] = system: maltose-trehalose converting enzyme; assay: Inhibition of activity of the present enzyme; type: biochemical, microorganisms; conditions: one mM Cu^++, Hg^++ and Tris-HCl buffer
Description: The activity of the present maltose-trehalose converting enzyme is assayed as follows: One ml of an enzyme solution is added to one ml of 20 w/v % maltose as a substrate in 10 mM phosphate buffer (pH 7.0), and the mixture solution is incubated at 25° C., 35° C. or 60° C. for 60 min, followed by the heating the solution at 100° C. for 10 min to suspend the enzymatic reaction. To the resultant reaction mixture is precisely diluted by 11-fold with 50 mM phosphate buffer (pH 7.5), and 0.4 ml of the diluted solution is admixed with 0.1 ml of a trehalase solution having one unit/ml of trehalase. […] As a control, by using trehalase and an enzyme solution, which were preheated at 100° C. for 10 min to inactivate the enzyme, the activity of the enzyme solution is assayed similarly as above. […] As regards to the reaction temperature, it is set to 25° C. for the enzyme of a microorganism of the genus Pimelobacter; 35° C. for that of the genus Pseudomonas; and 60° C. for that of the genus Thermus.

[2] = target: T1, maltose-trehalose converting enzyme derived from Thermus aquaticus (ATCC 33923) (Thermus thermophilus, UniProt O06458); assay: Inhibition of enzyme activity; type: biochemical; conditions: one mM Cu^++ or Hg^++, 50 mM Tris-HCl buffer
T1 construct: The culture obtained in Experiment 15 was centrifuged to obtain an about 0.28 kg of wet cells; endogenous in cells; host or cells: Thermus aquaticus (ATCC 33923), enzyme purified from the disrupted wild-type cells
T1 sequence (O06458 1-963): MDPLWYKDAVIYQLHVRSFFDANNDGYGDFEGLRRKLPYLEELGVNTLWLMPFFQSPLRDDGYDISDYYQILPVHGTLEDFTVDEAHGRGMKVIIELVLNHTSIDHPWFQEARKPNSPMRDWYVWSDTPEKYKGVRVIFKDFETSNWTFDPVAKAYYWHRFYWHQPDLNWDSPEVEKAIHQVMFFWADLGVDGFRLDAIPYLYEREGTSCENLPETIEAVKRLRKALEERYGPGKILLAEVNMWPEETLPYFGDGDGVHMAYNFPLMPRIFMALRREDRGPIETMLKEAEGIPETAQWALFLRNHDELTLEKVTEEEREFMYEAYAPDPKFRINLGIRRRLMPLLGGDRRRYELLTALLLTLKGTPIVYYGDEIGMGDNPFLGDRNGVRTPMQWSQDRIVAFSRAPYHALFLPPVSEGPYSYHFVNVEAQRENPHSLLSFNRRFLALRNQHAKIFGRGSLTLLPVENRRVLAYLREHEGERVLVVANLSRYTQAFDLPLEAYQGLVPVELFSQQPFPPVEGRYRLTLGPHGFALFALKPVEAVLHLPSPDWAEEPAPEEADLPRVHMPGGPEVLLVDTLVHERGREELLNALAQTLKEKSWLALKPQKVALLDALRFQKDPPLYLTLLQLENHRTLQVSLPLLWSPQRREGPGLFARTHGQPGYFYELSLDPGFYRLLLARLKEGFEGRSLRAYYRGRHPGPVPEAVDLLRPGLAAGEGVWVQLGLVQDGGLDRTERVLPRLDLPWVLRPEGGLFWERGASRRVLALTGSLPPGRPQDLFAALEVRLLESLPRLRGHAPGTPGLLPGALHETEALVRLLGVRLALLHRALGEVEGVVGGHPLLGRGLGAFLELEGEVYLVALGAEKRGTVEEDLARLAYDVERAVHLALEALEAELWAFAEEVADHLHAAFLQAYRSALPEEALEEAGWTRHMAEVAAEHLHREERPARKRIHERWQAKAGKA
Description: The activity of the present maltose-trehalose converting enzyme is assayed as follows: One ml of an enzyme solution is added to one ml of 20 w/v % maltose as a substrate in 10 mM phosphate buffer (pH 7.0), and the mixture solution is incubated at 25° C., 35° C. or 60° C. for 60 min, followed by the heating the solution at 100° C. for 10 min to suspend the enzymatic reaction. To the resultant reaction mixture is precisely diluted by 11-fold with 50 mM phosphate buffer (pH 7.5), and 0.4 ml of the diluted solution is admixed with 0.1 ml of a trehalase solution having one unit/ml of trehalase. The resultant solution is incubated at 45° C. for 120 min, followed by determining the amount of glucose by the glucose-oxidase method. As a control, by using trehalase and an enzyme solution, which were preheated at 100° C. for 10 min to inactivate the enzyme, the activity of the enzyme solution is assayed similarly as above. With the above assay, the content of trehalose, formed by the present maltose-trehalose converting enzyme, is determined based on the amount of glucose formed, and one unit activity of the enzyme is defined as the amount of enzyme which forms one μmole of trehalose per minute. As regards to the reaction temperature, it is set to 25° C. for the enzyme of a microorganism of the genus Pimelobacter; 35° C. for that of the genus Pseudomonas; and 60° C. for that of the genus Thermus.
Effects of temperature and pH on the activity of the present enzyme were studied in accordance with the method as used for assaying the enzyme activity. […] The thermal stability of the enzyme was determined by incubating it in 50 mM phosphate buffers (pH 7.0) in test tubes at different temperatures for 60 min, cooling the test tubes with cold water, and assaying the residual enzyme activity in each buffer. The pH stability of the enzyme was determined by incubating it in 50 mM phosphate buffers having different pHs at 60° C. for 60 min, adjusting the resultant buffers to pH 7.0, and assaying the residual enzyme activity in each buffer.

Row | SMILES | Inhibition of activity [1] | Inhibition of activity [2]
1 | NC(CO)(CO)CO [Tris-HCl buffer] | inhibited | inhibited; also recorded: inhibitory
2 | [Cu+2] [Cu^++] | inhibited | inhibited; also recorded: inhibitory
3 | [Hg+2] [Hg^++] | inhibited | inhibited; also recorded: inhibitory
